Experimental findings from the supplement of paper PMC10307832 are described below.

Holding throughout (experiment): relative viability (nuclei count vs DMSO), 5 days (fraction); higher = more cells survive
Compound in the assay “Doxorubicin + Luminespib”: COc1cccc2c1C(=O)c1c(O)c3c(c(O)c1C2=O)C[C@@](O)(C(=O)CO)C[C@@H]3O[C@H]1C[C@H](N)[C@H](O)[C@H](C)O1 [Doxorubicin] + CCNC(=O)c1noc(-c2cc(C(C)C)c(O)cc2O)c1-c1ccc(CN2CCOCC2)cc1 [Luminespib] (partner 0.01 µM)
An outline of the steps: (§1)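 One day after seeding in 1536-well plates, lung cancer cell lines were dosed by pin tool. Dosing was either single-drug or a fixed anchor-drug dose plus five library-drug doses (not always all listed) in √10 steps. After 5 days, nuclei were stained in one fix-and-stain step and counted on 4× images, and relative viability is the nuclei count of treated wells over that of vehicle wells, given as the median of duplicate plates.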

Compound in the assay “Doxorubicin + Trametinib”: COc1cccc2c1C(=O)c1c(O)c3c(c(O)c1C2=O)C[C@@](O)(C(=O)CO)C[C@@H]3O[C@H]1C[C@H](N)[C@H](O)[C@H](C)O1 [Doxorubicin] + CC(=O)Nc1cccc(-n2c(=O)n(C3CC3)c(=O)c3c(Nc4ccc(I)cc4F)n(C)c(=O)c(C)c32)c1 [Trametinib] (partner 0.02 µM)
A digest of the protocol:
as §1

Compound in the assay “BAY61-3606 + Luminespib”: COC1=C(C=C(C=C1)C2=CC3=NC=CN3C(=N2)NC4=C(C=CC=N4)C(=O)N)OC [BAY61-3606] + CCNC(=O)c1noc(-c2cc(C(C)C)c(O)cc2O)c1-c1ccc(CN2CCOCC2)cc1 [Luminespib] (partner 0.01 µM)
An outline of the steps: as §1

Compound in the assay “Doxorubicin + Lapatinib”: COc1cccc2c1C(=O)c1c(O)c3c(c(O)c1C2=O)C[C@@](O)(C(=O)CO)C[C@@H]3O[C@H]1C[C@H](N)[C@H](O)[C@H](C)O1 [Doxorubicin] + CS(=O)(=O)CCNCc1ccc(-c2ccc3ncnc(Nc4ccc(OCc5cccc(F)c5)c(Cl)c4)c3c2)o1 [Lapatinib] (partner 2 µM)
A digest of the protocol: as §1

UMC-11: the relative viability in the assay with Doxorubicin + Luminespib (first compound 0.001 µM) worked out at 0.998; in the assay with Doxorubicin + Luminespib (first compound 0.003162 µM) it was 1.12; in the assay with Doxorubicin + Luminespib (first compound 0.01 µM) it was 0.943; in the assay with Doxorubicin + Luminespib (first compound 0.03162 µM), 0.642; with Doxorubicin + Luminespib (first compound 0.1 µM) it was 0.601; with Doxorubicin + Trametinib (first compound 0.001 µM) it was 0.948. Moreover, the relative viability in the assay with Doxorubicin + Trametinib (first compound 0.003162 µM) came out at 0.761; in the assay with Doxorubicin + Trametinib (first compound 0.01 µM), 0.768; with Doxorubicin + Trametinib (first compound 0.03162 µM), 0.366; with Doxorubicin + Trametinib (first compound 0.1 µM), 0.442; in the assay with BAY61-3606 + Luminespib (first compound 0.02 µM) it was 1.12; in the assay with BAY61-3606 + Luminespib (first compound 0.06325 µM), 1.17. The relative viability with BAY61-3606 + Luminespib (first compound 0.2 µM) was determined as 1.08; with BAY61-3606 + Luminespib (first compound 0.6325 µM) it was 1.05; in the assay with BAY61-3606 + Luminespib (first compound 2 µM), 0.921; with Doxorubicin + Lapatinib (first compound 0.001 µM) it was 1.22; with Doxorubicin + Lapatinib (first compound 0.003162 µM) it was 1.13; with Doxorubicin + Lapatinib (first compound 0.01 µM) it was 0.906. Also, the relative viability was 0.514 with Doxorubicin + Lapatinib (first compound 0.03162 µM) and 0.456 in the assay with Doxorubicin + Lapatinib (first compound 0.1 µM).
